Laboratory results published in patent publication US20040171086A1, “Selective modulation of TLR-mediated biological activity” (3M Innovative Properties Company, priority 2003, published 2004).

Tests used:
[1] = biological target: T1, human TLR8 (Homo sapiens, UniProt Q9NR97); assay: NFκB-luciferase reporter assay in HEK293 cells transfected with human TLR8 (HEK293-TLR8); assay type: cell-based; conditions: HEK293-TLR8, 10 μM IRM, 16 hours
T1 construct: expressed in transfected cells; host or cells: HEK293 (ATCC CRL-1573), pIRES vector, G-418 selected
T1 sequence (Q9NR97 27-1041): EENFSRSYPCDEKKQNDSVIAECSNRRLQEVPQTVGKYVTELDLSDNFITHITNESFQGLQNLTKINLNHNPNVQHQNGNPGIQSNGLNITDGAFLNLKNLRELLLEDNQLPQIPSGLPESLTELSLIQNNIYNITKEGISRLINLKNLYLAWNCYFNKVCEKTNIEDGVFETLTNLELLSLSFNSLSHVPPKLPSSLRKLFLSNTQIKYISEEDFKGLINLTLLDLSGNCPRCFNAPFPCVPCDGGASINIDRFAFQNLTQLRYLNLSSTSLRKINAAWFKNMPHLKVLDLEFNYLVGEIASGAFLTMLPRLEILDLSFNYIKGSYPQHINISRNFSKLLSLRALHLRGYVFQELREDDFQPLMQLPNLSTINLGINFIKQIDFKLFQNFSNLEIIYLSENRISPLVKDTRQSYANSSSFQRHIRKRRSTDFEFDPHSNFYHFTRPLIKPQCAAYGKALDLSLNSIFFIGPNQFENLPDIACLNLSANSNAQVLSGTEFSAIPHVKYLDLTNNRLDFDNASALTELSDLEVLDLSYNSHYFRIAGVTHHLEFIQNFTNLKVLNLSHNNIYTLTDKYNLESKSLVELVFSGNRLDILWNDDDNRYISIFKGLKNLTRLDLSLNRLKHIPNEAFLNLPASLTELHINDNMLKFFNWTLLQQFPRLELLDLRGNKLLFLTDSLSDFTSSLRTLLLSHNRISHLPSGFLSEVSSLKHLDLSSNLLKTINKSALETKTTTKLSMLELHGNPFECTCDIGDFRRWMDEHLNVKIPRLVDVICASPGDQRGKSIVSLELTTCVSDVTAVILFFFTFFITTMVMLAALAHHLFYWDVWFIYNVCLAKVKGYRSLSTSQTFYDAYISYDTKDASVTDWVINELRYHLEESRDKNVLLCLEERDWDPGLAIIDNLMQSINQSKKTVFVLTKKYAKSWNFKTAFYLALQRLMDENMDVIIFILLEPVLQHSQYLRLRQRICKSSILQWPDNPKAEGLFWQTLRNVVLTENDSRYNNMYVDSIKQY
Experimental: (§1) A compound was identified as increasing cellular activity mediated through a given TLR if it induced at least a two-fold increase in NFκB-induced luciferase signal compared to the control.
(§2) HEK293 medium was prepared from 90% Minimum Essential Medium (MEM) with 2 mM L-glutamine and Earle's Balanced Salt Solution (Invitrogen Corp., Rockville, Md.) adjusted to contain 1.5 g/L sodium bicarbonate, 0.1 mM non-essential amino acids, and 1.0 mM sodium pyruvate; 10% heat-inactivated fetal calf serum. HEK293 cells were cultured by incubating cells in HEK293 medium overnight at 37° C., 8% CO2.
(§3) The cells were co-transfected with (1) pIRES (BD Biosciences Clontech, Palo Alto, Calif.) either (a) unmodified (HEK293-vector), (b) containing an expressible human TLR7 gene (HEK293-TLR7), or (c) containing an expressible human TLR8 gene (HEK293-TLR8), and (2) NFκB-luc reporter (Stratagene, La Jolla, Calif.) in a 10:1 ratio with Fugene 6 transfection reagent (Roche Diagnostics Corp., Indianapolis, Ind.) following the manufacturer's instructions.
(§4) The cells were stimulated with 1 μL of IRM compounds at 1 mM in DMSO (final IRM concentration of 10 μM) or 1 μL DMSO as a control. The plates were then incubated an additional 16 hours at 37° C., 5% CO2. The luciferase signal was read using the LucLite kit (Packard Instrument Co., Meriden, Conn.). Luminescence was measured on an LMAX luminometer (Molecular Devices Corp., Sunnyvale, Calif.).

[2] = biological target: T2, TLR7 (Homo sapiens, UniProt Q9NYK1); assay: NFκB-luciferase reporter assay in HEK293 cells transfected with human TLR7 (HEK293-TLR7); assay type: cell-based; set-up: expressed in transfected cells; host or cells: HEK293 (ATCC CRL-1573), pIRES vector, G-418 selected; conditions: HEK293-TLR7, 10 μM IRM, 16 hours
T2 sequence (Q9NYK1 27-1049): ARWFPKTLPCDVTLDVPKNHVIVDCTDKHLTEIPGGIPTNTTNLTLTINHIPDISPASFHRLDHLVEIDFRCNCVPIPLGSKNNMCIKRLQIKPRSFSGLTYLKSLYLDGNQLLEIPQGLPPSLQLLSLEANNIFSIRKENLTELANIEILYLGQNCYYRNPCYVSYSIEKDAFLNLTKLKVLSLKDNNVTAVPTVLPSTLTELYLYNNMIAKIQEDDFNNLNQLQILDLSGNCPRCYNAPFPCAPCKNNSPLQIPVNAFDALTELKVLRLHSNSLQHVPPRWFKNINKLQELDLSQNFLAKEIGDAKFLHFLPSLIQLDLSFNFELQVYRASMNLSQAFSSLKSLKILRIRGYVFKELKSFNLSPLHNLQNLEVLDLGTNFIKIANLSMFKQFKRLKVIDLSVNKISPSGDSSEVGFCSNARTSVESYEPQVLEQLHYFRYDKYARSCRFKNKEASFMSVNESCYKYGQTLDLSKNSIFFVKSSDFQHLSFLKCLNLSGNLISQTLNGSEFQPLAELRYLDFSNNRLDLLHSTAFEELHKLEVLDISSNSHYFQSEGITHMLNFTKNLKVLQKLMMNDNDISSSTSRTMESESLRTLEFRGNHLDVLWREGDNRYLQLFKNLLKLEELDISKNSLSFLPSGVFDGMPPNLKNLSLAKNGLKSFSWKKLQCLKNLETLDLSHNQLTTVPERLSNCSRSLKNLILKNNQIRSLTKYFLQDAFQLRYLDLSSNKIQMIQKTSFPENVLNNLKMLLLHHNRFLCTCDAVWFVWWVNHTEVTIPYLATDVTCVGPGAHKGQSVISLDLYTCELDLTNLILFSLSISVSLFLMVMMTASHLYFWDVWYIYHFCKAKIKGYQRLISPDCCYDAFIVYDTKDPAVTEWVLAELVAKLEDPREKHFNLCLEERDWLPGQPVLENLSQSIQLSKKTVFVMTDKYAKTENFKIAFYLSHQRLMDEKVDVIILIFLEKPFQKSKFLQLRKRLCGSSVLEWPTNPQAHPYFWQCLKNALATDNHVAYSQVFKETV
Experimental: as §1, §2, §3, §4

SMILES	TLR8: fold increase of NFκB-induced luciferase signal compared to a DMSO control [1]	TLR7: fold increase of NFκB-induced luciferase signal compared to a DMSO control [2]
COCCc1nc2c(N)nc3ccccc3c2n1CCOCCNC(=O)Nc1ccccc1 [IRM19, N-(2-{2-[4-amino-2-(2-methoxyethyl)-1H-imidazo[4,5-c]quinolin-1-yl)ethoxy}ethyl)-N′-phenylurea]	7.25 fold increase	2.45 fold increase
CCc1nc2c(N)nc3ccccc3c2n1CCCCSc1cc(Cl)cc(Cl)c1 [IRM14, 1-{4-[(3,5-dichlorophenyl)thio]butyl}-2-ethyl-1H-imidazo[4,5-c]quinolin-4-amine]	4.18 fold increase	0.67 fold increase
CCc1nc2c(N)nc3ccccc3c2n1CCCCNC(=O)C1CCCCC1 [IRM8, N-[4-(4-amino-2-ethyl-1H-imidazo[4,5-c]quinolin-1-yl)butyl]cyclohexanecarboxamide]	0.99 fold increase	6.04 fold increase
COCCc1nc2c(N)nc3c(c2n1CC(C)(C)NS(C)(=O)=O)CCCC3 [IRM22, N-{2-[4-amino-2-(2-methoxyethyl)-6,7,8,9-tetrahydro-1H-imidazo[4,5-c]quinolin-1-yl]-1,1-dimethylethyl}methanesulfonamide]	7.37 fold increase	6.57 fold increase
COCCc1nc2c(N)nc3ccccc3c2n1CCOCCN(C)C(=O)C1CCCCC1 [IRM3, N-(2-{2-[4-amino-2-(2-methoxyethyl)-1H-imidazo[4,5-c]quinolin-1-yl]ethoxy}ethyl)-N-methylcyclohexanecarboxamide]	1.14 fold increase	6.37 fold increase
CCOCc1nc2c(N)nc3ccccc3c2n1CC(C)C [IRM1, 2-(ethoxymethyl)-1-(2-methylpropyl)-1H-imidazo[4,5-c]quinolin-4-amine]	1.02 fold increase	4.05 fold increase
CCCCc1nc2c(N)nc3ccccc3c2n1CCCCCS(C)(=O)=O [IRM6, 2-butyl-1-[5-(methylsulfonyl)pentyl]-1H-imidazo[4,5-c]quinolin-4-amine]	0.90 fold increase	8.46 fold increase
CCC(C)NC(=S)NCCn1c(CCOC)nc2c(N)nc3ccccc3c21 (stereo not drawn) [IRM21, N-{2-[4-amino-2-(2-methoxyethyl)-1H-imidazo[4,5-c]quinolin-1-yl]ethyl}-N′-sec-butylthiourea]	5.92 fold increase	7.08 fold increase
CCOCc1nc2c(N)nc3c(c2n1CC(C)(C)O)CCCC3 [IRM16, 4-amino-2-ethoxymethyl-α,α-dimethyl-6,7,8,9-tetrahydro-1H-imidazo[4,5-c]quinoline-1-ethanol]	8.64 fold increase	5.54 fold increase
